Reference: patent US8912200B2, “Alkynyl substituted pyrimidinyl-pyrroles active as kinases inhibitors” (Nerviano Medical Sciences S.R.L., priority 2011, dated 2014)

Assays:
[1] = tested on: JAK2 dependent human megakaryoblastic leukemia cell line SET-2; experiment: Cell proliferation assay (CellTiter-Glo, 72 hours); assay type: cell-based; settings: Homo sapiens, SET-2 cells
Procedure: The JAK2 dependent human megakaryoblastic leukemia cell line SET-2 (DSMZ, Braunschweig GERMANY) and the JAK2 independent human chronic myelogenous leukaemia cell line K562 (ECACC, Wiltshire, UK) were cultured in RPMI-1640 medium-Glutamax (Gibco BRL, Gaithesburg, Md., USA), supplemented with 10% fetal bovine serum (FBS) at 37° C. and 5% CO2.
Cell Proliferation Assay:
Approximately 5×10^3 cells were plated into 384 microtiter plate wells in 50 μL of growth media with different concentrations of inhibitors. The cells were incubated at 37° C. and 5% CO2 for 72 hours, then the plates were processed using CellTiter-Glo assay (Promega, Madison, Wis., USA) following the manufacturer's instruction. Briefly 25 μL/well reagent solution is added to each well and after 5 minutes shaking the micro-plates are read by Envision luminometer (PerkinElmer, Waltham, Mass., USA).
Data are analyzed by Symix Assay Explorer software (Symix Technologies Inc.) that provides sigmoidal fitting algorithm of the 8 points dilutions curves for IC50 determination.

JAK2 kinase domain = biological target: T1, JAK2 kinase domain (Homo sapiens, UniProt O60674); experiment: Biochemical assay for inhibitors of JAK kinase activity (JAK2, 33P-γ-ATP/dowex resin); settings: JAK2 kinase domain 1 nM, 60 μM ATP
T1 construct: commercially available JAK2 kinase domain; purchased Invitrogen, Eugene, Oreg
Excerpt: Biochemical Assay for Inhibitors of JAK Kinase Activity
Specific JAK2, JAK1 or JAK3 peptide substrates are trans-phosphorylated by JAK kinases in the presence of ATP traced with 33P-γ-ATP. At the end of the phosphorylation reaction, the unreacted ATP, cold and radioactive, is captured by an excess of dowex ion exchange resin that eventually settles by gravity to the bottom of the reaction plate. The supernatant is subsequently withdrawn and transferred into a counting plate that is then evaluated by β-counting.
500 g of wet resin (SIGMA, custom prepared resin DOWEX 1×8 200-400 mesh, 2.5 Kg) are weighed out and diluted 2 to 1 in 150 mM sodium formate, pH 3.00. The resin is allowed to settle down overnight and then the supernatant is discarded. After three washes as above over a couple of days, the resin is allowed to settle and two volumes (with respect to the resin volume) of 150 mM sodium formate buffer are added.
Kinase buffer was composed of 50 mM HEPES pH 7.5 containing 10 mM MgCl2, 2.5 mM DTT, 10 μM Na3VO4 and 0.2 mg/mL BSA.
JAK2 Specific Assay Conditions
The JAK2 kinase assay was run with a final enzyme concentration of 1 nM, in the presence of 60 μM ATP, 3 nM 33P-γ-ATP and 64 μM of substrate BioDBn*306 (Aminoacid sequence: LPLDKDYYVVREPGQ—SEQ ID NO: 1). The peptidic substrate was purchased from American Peptide Company (Sunnyvale, Calif.).
For IC50 determination, test compounds are received as a 1 mM solution in 100% DMSO, distributed into 96 well plates: compounds are then plated into the first column of a microtiter plate (A1 to G1), 100 μL/well.
An automated station for serial dilutions (Biomek FX, Beckman) is used for producing 1:3 dilutions in 100% DMSO, from line A1 to A10, and for all the compounds in the column. Moreover, 4-5 copies of daughter plates are prepared by reformatting 5 μL of this first set of 100% DMSO dilution plates into 384 deep well-plates: one of these plates with the serial dilutions of test compounds will be thawed the day of the experiments, reconstituted at a 3× concentration with water and used in the IC50 determination assays. In a standard experiment, the highest concentration (3×) of all compounds is 30 μM, while the lowest one is 1.5 nM. Each 384 well-plate will contain at least one curve of the standard inhibitor staurosporine and reference wells (total enzyme activity vs. no enzymatic activity) for the Z′ and signal to background evaluation.
384-well plates, V bottom (test plates) are prepared with 5 μL of the compound dilution (3×) and then placed onto a PlateTrak 12 robotized station (Perkin Elmer; the robot has one 384-tip pipetting head for starting the assay plus one 96-tip head for dispensing the resin) together with one reservoir for the Enzyme mix (3×) and one for the ATP mix (3×). At the start of the run, the robot aspirates 5 μL of ATP mix, makes an air gap inside the tips (3 μl) and aspirates 5 μL of JAK2 mix. The following dispensation into the plates plus 3 cycles of mixing, done by the robot itself, starts the kinase reaction. At this point, the correct concentrations are restored for all the reagents. The robot incubates the plates for 60 minutes at room temperature, and then stops the reaction by pipetting 60 μL of dowex resin suspension into the reaction mix. In order to avoid tip clogging, wide bore tips are used to dispense the resin suspension. Three cycles of mixing are done immediately after the addition of the resin. Another mixing cycle is performed after all the plates are stopped, this time using normal tips: the plates are then allowed to rest for about one hour in order to allow resin sedimentation. At this point, 27 μL of the supernatant are transferred into 384-Optiplates (Perkin-Elmer), with 50 μL of Microscint 40 (Perkin-Elmer); after 5 min of orbital shaking the plates are read on a Perkin-Elmer Top Count radioactivity counter. […]

T1 sequence (O60674 849-1124 limits assumed): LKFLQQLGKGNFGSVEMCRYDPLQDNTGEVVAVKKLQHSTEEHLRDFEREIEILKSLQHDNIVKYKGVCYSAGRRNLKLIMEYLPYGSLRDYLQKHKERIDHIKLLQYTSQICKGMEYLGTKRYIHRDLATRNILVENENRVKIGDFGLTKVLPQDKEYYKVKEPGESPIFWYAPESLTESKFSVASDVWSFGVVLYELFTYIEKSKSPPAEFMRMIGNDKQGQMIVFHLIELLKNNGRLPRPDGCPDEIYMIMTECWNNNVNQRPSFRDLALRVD

| Structure (SMILES) | IC50 [1] [nM] | IC50 (JAK2 kinase domain) [nM] |
| --- | --- | --- |
| COc1ccccc1C#Cc1cnc(N)nc1-c1cc(C(N)=O)c(-c2cc(Cl)ccc2C)[nH]1 [compound 5, 5-{2-Amino-5-[(2-methoxyphenyl)ethynyl]pyrimidin-4-yl}-2-(5-chloro-2-methylphenyl)-1H-pyrrole-3-carboxamide] | 750 | 5 |
| Cc1ccc(Cl)cc1-c1[nH]c(-c2nc(N)ncc2C#Cc2cccc(NC3CCN(C)CC3)c2)cc1C(N)=O [compound 12, 5-[2-Amino-5-({3-[(1-methylpiperidin-4-yl)amino]phenyl}ethynyl)pyrimidin-4-yl]-2-(5-chloro-2-methylphenyl)-1H-pyrrole-3-carboxamide] | 500 | 1 |
| Cc1ccc(Cl)cc1-c1[nH]c(-c2nc(N)ncc2C#Cc2ccc(N3CCC(N4CCCC4)CC3)cc2)cc1C(N)=O [compound 26, 5-[2-Amino-5-({4-[4-(pyrrolidin-1-yl)piperidin-1-yl]phenyl}ethynyl)pyrimidin-4-yl]-2-(5-chloro-2-methylphenyl)-1H-pyrrole-3-carboxamide] | 290 | 1 |
| Cc1ccc(Cl)cc1-c1[nH]c(-c2nc(N)ncc2C#Cc2ccc(N3CCC[C@H]3CN3CCCC3)cc2)cc1C(N)=O [compound 31, 5-[2-Amino-5-({4-[(2S)-2-(pyrrolidin-1-ylmethyl)pyrrolidin-1-yl]phenyl}ethynyl)pyrimidin-4-yl]-2-(5-chloro-2-methylphenyl)-1H-pyrrole-3-carboxamide] | 310 | 1 |
| Cc1ccc(Cl)cc1-c1[nH]c(-c2nc(N)ncc2C#Cc2ccc(Br)cc2)cc1C(N)=O [compound 40, 5-{2-Amino-5-[(4-bromophenyl)ethynyl]pyrimidin-4-yl}-2-(5-chloro-2-methylphenyl)-1H-pyrrole-3-carboxamide] | 2480 | 85 |
| Cc1ccc(Cl)cc1-c1[nH]c(-c2nc(N)ncc2C#Cc2ccccc2NCCO)cc1C(N)=O [compound 43, 5-[2-Amino-5-({2-[(2-hydroxyethyl)amino]phenyl}ethynyl)pyrimidin-4-yl]-2-(5-chloro-2-methylphenyl)-1H-pyrrole-3-carboxamide] | 960 | 13 |
| Cc1ccc(Cl)cc1-c1[nH]c(-c2nc(N)ncc2C#Cc2ccccc2NCCN(C)C)cc1C(N)=O [compound 45, 5-{2-Amino-5-[(2-{[2-(dimethylamino)ethyl]amino}phenyl)ethynyl]pyrimidin-4-yl}-2-(5-chloro-2-methylphenyl)-1H-pyrrole-3-carboxamide] | 560 | 10 |
| Cc1ccc(Cl)cc1-c1[nH]c(-c2nc(N)ncc2C#Cc2ccc(CN3CCN(C)CC3)cc2)cc1C(N)=O [compound 65, 5-[2-Amino-5-({4-[(4-methylpiperazin-1-yl)methyl]phenyl}ethynyl)pyrimidin-4-yl]-2-(5-chloro-2-methylphenyl)-1H-pyrrole-3-carboxamide] | 80 | 1 |
| Cc1ccc(Cl)cc1-c1[nH]c(-c2ccnc(N)n2)c(C#Cc2cccc(NC3CCN(C)CC3)c2)c1C(N)=O [compound 80, 5-(2-Aminopyrimidin-4-yl)-2-(5-chloro-2-methylphenyl)-4-({3-[(1-methylpiperidin-4-yl)amino]phenyl}ethynyl)-1H-pyrrole-3-carboxamide] | 780 | 6 |

Second part, the compound after the results:

| IC50 [1] [nM] | IC50 (JAK2 kinase domain) [nM] | Structure (SMILES) |
| --- | --- | --- |
| 300 | 2 | Cc1ccc(Cl)cc1-c1[nH]c(-c2nc(N)ncc2C#Cc2ccccc2)cc1C(N)=O [compound 1, 5-[2-Amino-5-(phenylethynyl)pyrimidin-4-yl]-2-(5-chloro-2-methylphenyl)-1H-pyrrole-3-carboxamide] |
| 570 | 2 | Cc1ccc(Cl)cc1-c1[nH]c(-c2nc(N)ncc2C#CC2CC2)cc1C(N)=O [compound 38, 5-[2-Amino-5-(cyclopropylethynyl)pyrimidin-4-yl]-2-(5-chloro-2-methylphenyl)-1H-pyrrole-3-carboxamide] |
| 460 | 11 | Cc1ccc(Cl)cc1-c1[nH]c(-c2nc(N)ncc2C#CCN(C)C)cc1C(N)=O [compound 44, 5-{2-Amino-5-[3-(dimethylamino)prop-1-yn-1-yl]pyrimidin-4-yl}-2-(5-chloro-2-methylphenyl)-1H-pyrrole-3-carboxamide] |
| 110 | 2 | Cc1ccc(Cl)cc1-c1[nH]c(-c2nc(N)ncc2C#Cc2cccnc2)cc1C(N)=O [compound 53, 5-[2-Amino-5-(pyridin-3-ylethynyl)pyrimidin-4-yl]-2-(5-chloro-2-methylphenyl)-1H-pyrrole-3-carboxamide] |
| 780 | 16 | Cc1ccc(Cl)cc1-c1[nH]c(-c2nc(N)ncc2C#CC(C)(C)O)cc1C(N)=O [compound 54, 5-[2-Amino-5-(3-hydroxy-3-methylbut-1-yn-1-yl)pyrimidin-4-yl]-2-(5-chloro-2-methylphenyl)-1H-pyrrole-3-carboxamide] |
